According to patent US20100267561A1, “HERBICIDAL PYRIDAZINONE DERIVATIVES” (priority 2007, published 2010):

How the values were obtained:
Assay type in all cases: in vivo
[1] = tested on: Italian ryegrass (Lolium multiflorum); assay: Test B pre-/postemergence plant response
How it was run: (§1)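 Visual scoring from 0 (no effect) to 100 (complete control) against untreated controls was done 13 to 15 days after greenhouse treatment. Chemicals were formulated in a surfactant-containing non-phytotoxic solvent and applied to soil preemergence or to 1- to 4-leaf (2-18 cm) plants postemergence.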

[2] = tested on: bermudagrass (Cynodon dactylon); assay: Test B pre-/postemergence plant response
How it was run: as §1

[3] = tested on: johnsongrass (Sorghum halepense); assay: Test B pre-/postemergence plant response
How it was run: as §1

[4] = tested on: barnyardgrass (Echinochloa crus-galli); assay: Test A pre-/postemergence plant response
How it was run: (§2)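 Greenhouse pot test: loam–sand soil; pre- and postemergence sprays applied same day; post plants 2–10 cm, 1–2 leaves. Readout ~10 d, visual % injury vs untreated (0 = none, 100 = complete control).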

[5] = tested on: large crabgrass (Digitaria sanguinalis); assay: Test A pre-/postemergence plant response
How it was run: as §2

[6] = tested on: pigweed (Amaranthus retroflexus); assay: Test A pre-/postemergence plant response
How it was run: as §2

corn (Zea mays) = assay: Test A pre-/postemergence plant response
How it was run: as §2

[7] = tested on: canarygrass (Phalaris minor); assay: Test B postemergence plant response; settings: for Canarygrass plant response rating: 8 g ai/ha, postemergence, 0-100 scale; for Plant response rating, Canarygrass: Postemergence
How it was run: (§3)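 Visual injury ratings on a 0–100 scale, where 100 means complete control, were made 13 to 15 days after postemergence treatment of greenhouse-grown plants at the 1- to 4-leaf stage.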

[8] = tested on: chickweed (Stellaria media); assay: Test B postemergence plant response; settings: for Chickweed plant response rating: postemergence, 0-100 scale; for Plant response rating, Chickweed: Postemergence
How it was run: as §3

[9] = tested on: winter barley (Hordeum vulgare); assay: Test B postemergence plant response; settings: for Barley plant response rating: postemergence; for Plant response rating, Barley: Postemergence, scale 0 to 100, 0 no effect, 100 complete control
How it was run: as §3

[10] = tested on: windgrass (Apera spica-venti); assay: Test B postemergence plant response; settings: for Windgrass plant response rating: postemergence, 0-100 scale; for Plant response rating, Windgrass: Postemergence
How it was run: as §3

[11] = 8 g ai/ha, postemergence, 0-100 scale
[12] = 16 g ai/ha, postemergence, 0-100 scale
[13] = Postemergence, 31 g ai/ha, scale 0 to 100
[14] = Postemergence, 62 g ai/ha, scale 0 to 100, 0 no effect, 100 complete control
[15] = Postemergence, 31 g ai/ha, 0 to 100 scale, 0 no effect, 100 complete control
[16] = Postemergence, 125 g ai/ha, 0 to 100 scale, 0 no effect, 100 complete control
[17] = Preemergence, 31 g ai/ha, 0 to 100 scale, 0 is no effect, 100 is complete control
[18] = Preemergence, 125 g ai/ha, 0 to 100 scale (0 no effect, 100 complete control)
[19] = 62 g ai/ha, scale 0 to 100, 0 no effect, 100 complete control
[20] = Preemergence, 8 g ai/ha, scale 0 to 100 (0 no effect, 100 complete control)
[21] = Preemergence, 31 g ai/ha, scale 0 to 100 (0 no effect, 100 complete control)
[22] = Preemergence, 62 g ai/ha, 0 to 100 scale, 0 no effect, 100 complete control
[23] = Preemergence, 16 g ai/ha, scale 0 to 100

## CCc1cc(-c2ccc(Br)cc2)nn1-c1c(O)cnn(CC(F)(F)F)c1=O [Compound 73]
[1]; [11]
  Ryegrass, Italian plant response rating: 45
[1]; [12]
  Ryegrass, Italian plant response rating: 70
[1]; [13]
  Plant response rating, Ryegrass, Italian: 100
[1]; [14]
  Plant response rating, Ryegrass, Italian: 100
[2]; [11]
  Bermudagrass plant response rating: 0
[2]; Postemergence, 16 g ai/ha, scale 0 to 100
  Plant response rating, Bermudagrass: 0
[2]; [13]
  Plant response rating, Bermudagrass: 10
[2]; [14]
  Plant response rating, Bermudagrass: 10
[3]; [11]
  Johnsongrass plant response rating: 70
[3]; [12]
  Johnsongrass plant response rating: 85
[3]; [13]
  Plant response rating, Johnsongrass: 90
[3]; [14]
  Plant response rating, Johnsongrass: 100
[4]; [15]
  Plant response rating, Barnyardgrass: 60
[4]; [16]
  Plant response rating, Barnyardgrass: 100
[4]; [17]
  Plant response rating, Barnyardgrass: 0
[4]; [18]
  Plant response rating, Barnyardgrass: 10
[5]; [15]
  Plant response rating, Crabgrass, Large: 40
[5]; [16]
  Plant response rating, Crabgrass, Large: 100
[5]; [17]
  Plant response rating, Crabgrass, Large: 0
[5]; [18]
  Plant response rating, Crabgrass, Large: 50
[6]; [15]
  Plant response rating, Pigweed: 10
[6]; [16]
  Plant response rating, Pigweed: 10
[6]; [17]
  Plant response rating, Pigweed: 0
[6]; [18]
  Plant response rating, Pigweed: 0
Corn (Zea mays); [15]
  Plant response rating, Corn: 90
Corn (Zea mays); [16]
  Plant response rating, Corn: 100
Corn (Zea mays); [17]
  Plant response rating, Corn: 0
Corn (Zea mays); [18]
  Plant response rating, Corn: 20
[7]
  Canarygrass plant response rating: 30
[7]; 16 g ai/ha, scale 0 to 100
  Plant response rating, Canarygrass: 90
[7]; 31 g ai/ha, scale 0 to 100
  Plant response rating, Canarygrass: 90
[7]; [19]
  Plant response rating, Canarygrass: 100
[8]; 8 g ai/ha
  Chickweed plant response rating: 0
[8]; 16 g ai/ha, scale 0 to 100
  Plant response rating, Chickweed: 0
[8]; 31 g ai/ha, scale 0 to 100
  Plant response rating, Chickweed: 0
[8]; [19]
  Plant response rating, Chickweed: 0
[9]; 8 g ai/ha, 0-100 scale
  Barley plant response rating: 0
[9]; 16 g ai/ha
  Plant response rating, Barley: 40
[9]; 31 g ai/ha
  Plant response rating, Barley: 40
[9]; 62 g ai/ha
  Plant response rating, Barley: 70
[10]; 8 g ai/ha
  Windgrass plant response rating: 50
[10]; 16 g ai/ha
  Windgrass plant response rating: 60
[10]; 31 g ai/ha, scale 0 to 100
  Plant response rating, Windgrass: 80
[10]; [19]
  Plant response rating, Windgrass: 95

## CCc1c(C)c(-c2ccc(Br)cc2)nn1-c1c(O)cnn(C)c1=O [Compound 83]
[1]; [11]
  Ryegrass, Italian plant response rating: 85
[1]; [12]
  Ryegrass, Italian plant response rating: 98
[1]; [13]
  Plant response rating, Ryegrass, Italian: 100
[1]; [14]
  Plant response rating, Ryegrass, Italian: 100
[1]; [20]
  Ryegrass, Italian plant response rating: 30
[1]; [21]
  Plant response rating, Ryegrass, Italian: 100
[1]; [22]
  Plant response rating, Ryegrass, Italian: 100
[1]; [23]
  Ryegrass, Italian plant response rating: 85
[2]; [11]
  Bermudagrass plant response rating: 40
[2]; [12]
  Bermudagrass plant response rating: 65
[2]; [13]
  Plant response rating, Bermudagrass: 85
[2]; [14]
  Plant response rating, Bermudagrass: 90
[2]; [20]
  Bermudagrass plant response rating: 55
[2]; Preemergence, 16 g ai/ha, scale 0 to 100 (0 no effect, 100 complete control)
  Bermudagrass plant response rating: 65
[2]; [21]
  Plant response rating, Bermudagrass: 100
[2]; [22]
  Plant response rating, Bermudagrass: 100
[3]; [11]
  Johnsongrass plant response rating: 65
[3]; [12]
  Johnsongrass plant response rating: 70
[3]; [13]
  Plant response rating, Johnsongrass: 98
[3]; [14]
  Plant response rating, Johnsongrass: 100
[3]; [20]
  Johnsongrass plant response rating: 55
[3]; [21]
  Plant response rating, Johnsongrass: 95
[3]; [22]
  Plant response rating, Johnsongrass: 98
[3]; [23]
  Johnsongrass plant response rating: 85
[4]; [15]
  Plant response rating, Barnyardgrass: 100
[4]; [16]
  Plant response rating, Barnyardgrass: 100
[4]; [17]
  Plant response rating, Barnyardgrass: 20
[4]; [18]
  Plant response rating, Barnyardgrass: 100
[5]; [15]
  Plant response rating, Crabgrass, Large: 60
[5]; [16]
  Plant response rating, Crabgrass, Large: 100
[5]; [17]
  Plant response rating, Crabgrass, Large: 0
[5]; [18]
  Plant response rating, Crabgrass, Large: 70
[6]; [15]
  Plant response rating, Pigweed: 0
[6]; [16]
  Plant response rating, Pigweed: 0
[6]; [17]
  Plant response rating, Pigweed: 0
[6]; [18]
  Plant response rating, Pigweed: 30
Corn (Zea mays); [15]
  Plant response rating, Corn: 0
Corn (Zea mays); [16]
  Plant response rating, Corn: 100
Corn (Zea mays); [17]
  Plant response rating, Corn: 0
Corn (Zea mays); [18]
  Plant response rating, Corn: 40
[7]
  Canarygrass plant response rating: 65
[7]; 31 g ai/ha, scale 0 to 100
  Plant response rating, Canarygrass: 90
[7]; [19]
  Plant response rating, Canarygrass: 90
[8]; 8 g ai/ha
  Chickweed plant response rating: 0
[8]; 16 g ai/ha
  Chickweed plant response rating: 0
[8]; 31 g ai/ha, scale 0 to 100
  Plant response rating, Chickweed: 0
[8]; [19]
  Plant response rating, Chickweed: 0
[9]; 8 g ai/ha, 0-100 scale
  Barley plant response rating: 0
[9]; 16 g ai/ha, 0-100 scale (0 no effect, 100 complete control)
  Barley plant response rating: 0
[9]; 31 g ai/ha
  Plant response rating, Barley: 45
[9]; 62 g ai/ha
  Plant response rating, Barley: 45
[10]; 8 g ai/ha
  Windgrass plant response rating: 90
[10]; 16 g ai/ha
  Windgrass plant response rating: 98
[10]; 31 g ai/ha, scale 0 to 100
  Plant response rating, Windgrass: 100
[10]; [19]
  Plant response rating, Windgrass: 100
